Patent US9604987B2, “Synthesis of autophagy inducing compound and the uses thereof” (Hong Kong Baptist University, priority 2012, dated 2017)

Columns and labels:
PC12 cells = assay: Western blot of autophagy marker LC3-II in PC12 cells; assay type: cell-based, rat; conditions: PC12, 0-25 μM, 24 hours
Procedure: (§1) Native and denatured PAGE and Western blotting analysis. Samples to be run under denaturing conditions were lysed with RIPA lysis buffer (150 mM NaCl, 50 mM Tris-HCl, 0.35% sodium deoxycholate, 1 mM EDTA, 1% NP40, 1 mM PMSF, 5 μg/ml aprotinin, 5 μg/ml leupeptin). Samples for native gels were lysed with detergent-free lysis buffer (50 mM Tris/HCl pH 7.4, 175 mM NaCl, 5 mM EDTA pH 8.0, 1 mM PMSF, 5 μg/ml aprotinin, 5 μg/ml leupeptin), and sheared 5 times through a 28-gauge needle followed by 2 times of sonication for 5 seconds according to previously described protocol. For denaturing, SDS-PAGE was performed using Tris-Glycine SDS running buffer and SDS sample buffer, and for native conditions, native-PAGE was run with detergent-free Tris-Glycine running buffer (BN2007, Invitrogen) and 4× native sample buffer (BN2003, Invitrogen) on a pre-casted native PAGE gel (BN1002BOX, Invitrogen). The proteins on the gels were then transferred to PVDF membrane (RPN303F, GE Healthcare) and processed for immunoblotting. Membranes were blocked with 5% non-fat milk and probed with the appropriate primary and secondary antibodies. The desired bands were visualized using the ECL kit (32106, Pierce). The band density was quantified using the ImageJ program and normalized to that of the control group. […]

SH-SY5Y cells = assay: Western blot of autophagy marker LC3-II in SH-SY5Y cells; assay type: cell-based, human; conditions: 0-25 μM, 24 hours
Procedure: as §1

[1] = system: WT and A53T α-syn in differentiated DA neurons; assay: α-syn degradation in human dopaminergic neurons differentiated from embryonic stem cells; assay type: cell-based
Source text: Differentiation of stem cells into dopaminergic neurons. The human embryonic stem (ES) cells were differentiated into dopaminergic neurons according to a previously described protocol with minor changes. Initially, ES cells were digested with dispase (17105041, Invitrogen,) and broken into smaller clusters to form the embryonic bodies. The next day, undifferentiated floating ES cell aggregates were transferred to a new flask. The cells were maintained in DMEM/F12 medium (11320082, Invitrogen) with half medium changed every day for 3 days. On the fourth day, ES cell aggregates were collected by centrifuge and re-suspended in NSM (DMEM/F12 containing 1% N2 supplement (17502048, Invitrogen), 1 μg/ml Heparin (H3149, Sigma), 200 μM NEAA (11140050, Invitrogen) and 2 mM L-glutamine (25030081, Invitrogen)) supplemented with 10% FBS. Embryonic stem cells were transferred to a new flask and medium was changed every other day. Three days later, cell aggregates were transferred to 6-well-plates. The next day, the FBS containing media were replaced with NSM containing 20 ng/ml FGF8 (PHG0184, Invitrogen) and 100 ng/ml SHH (PMC2095, Invitrogen), media were changed every other day. Five days later, the colonies in the dish were detached by pipetting gently with a P1000 pipette. […]

[2] = system: phosphorylated mTOR and P70S6K; assay: Western blot of mTOR pathway and other autophagy pathways in N2a cells; assay type: cell-based, mouse
Procedure: FIG. 7: Western blot analysis of expression level of phosphorylated mTOR (p-mTOR) or its substrate P70S6K (p-P70S6K) in N2a cells with treatment of 25 μM Cory B or 0.2 μM rapamycin for 6 hours (FIG. 7A); western blot analysis of Beclin 1 expression in N2a cells with non-target or Beclin 1-specific siRNA treatments followed by Cory B (FIG. 7B)
To elucidate the molecular mechanism of Cory B action, the classic autophagy controlling pathway, the mTOR pathway is first examined.

Tg2567 APP mice = Tg2567 APP mice treated intraperitoneally; assay type: in vivo; conditions: 20 mg/kg/d intraperitoneally, three months
Procedure: N2a Swedish APP cells are incubated with different concentration of Cory and Cory B in the presence or absence of CQ and 3MA. […] Tg2567 APP mice, 3 months old JNPL P301 Tau mice and WT mice intraperitoneally are administrated with 20 mg/kg/d CoryB.

With CC[C@@H]1CN2CC[C@]3(C(=O)Nc4ccccc43)C2C[C@@H]1C(=COC)C(=O)OC (stereo partly drawn) [Cory B, Corynoxine B] the LC3-II levels (PC12 cells) was “increases levels of LC3-II”, the LC3-II levels (SH-SY5Y cells) was “increases levels of LC3-II” and the “WT and A53T α-syn levels” value [1] was “dramatically decreases both WT and A53T α-syn levels”. For the same compound, the “phosphorylated mTOR and p-P70S6K levels” value ([2]; 25 μM Cory B or 0.2 μM rapamycin, 6 hours) was “neither phosphorylated mTOR nor its substrate P70S6K are affected”, the “AKT, AMPK, MEK/ERK, JNK, ER stress and calcium signaling pathways” value ([2]; data not shown) was “none of the above mentioned pathways are altered” and the Fl-APP/CTF (Tg2567 APP mice) was “significantly decrease”.
